Measured values: patent EP1379634B1 (THE UNIVERSITY OF GEORGIA RESEARCH FOUNDATION, INC., priority 2001, dated 2002)
Residues, ends and D or L forms follow the SMILES beside them. *: point of attachment. Cbz = O=C(OCc1ccccc1)*; CH2F = FC*

What was measured:
[1] = biological target: Cathepsin D (Homo sapiens, UniProt P07339); experiment: Selectivity test (Steps VI and IX), Cathepsin D; format: biochemical; details: vehicle 4 X 10^-5 M; pH 7.1, substrate Z-RGFFP-AFC; 40 µM
Procedure: (§1) In order to perform the assay, the vehicle (for Step VI) or inhibitor (for Step IX) were incubated with the appropriate substrate in the correct assay buffer and allowed to equilibrate. Subsequently, the protease was added, and the assay was allowed to incubate for an appropriate time. The concentrations used in this experiment were as follows: Vehicle was set up at 4 X 10^-5 M in final assay buffer; Inhibitor was set up at 3 X 10^-10 M in the final assay buffer. Preferably the dosages employed should be the minimal amount of vehicle or inhibitor necessary to induce inhibition. […] Substrates were set up based upon the preferred substrate for cleavage of the particular enzyme.
(§2) Positive controls were set up similarly as described for test controls, except that a solvent blank was added in substitution for the inhibitor or vehicle (in a volume equal to the volume of inhibitor or vehicle addition). All of the inhibitors and vehicles could be dissolved in dimethylsulfoxide (DMSO), and therefore, this was the solvent of choice. Negative controls were set up by adding the inhibitor or vehicle and the preferred substrates in a tube without the protease. […]
(§3) Percent inhibition was calculated as: %Inhibition = ((AFC positive for "SI"−AFC negative for "SI")−(AFC test−AFC negative for "SI"))/(AFC positive for "SI"−AFC negative for "SI") × 100 [formula] […]

[2] = biological target: Cathepsin B (Homo sapiens, UniProt P07858); experiment: Selectivity test (Steps VI and IX), Cathepsin B; format: biochemical; details: vehicle 4 X 10^-5 M; pH 6.1, substrate Z-ARR-AFC; 40 µM
Procedure: as §1, §2, §3

[3] = test system: Taenia crassiceps cysts; experiment: Short-term protection of BALB/c mice from cysticercosis infection; format: in vivo; details: repeat study, BALB/c mice
[4] = test system: Taenia crassiceps cysts; experiment: Scanning electron microscopy of cyst surfaces removed from treated mice; format: in vivo; details: cysts removed from treated BALB/c mice
Text: • Figure 1. Free energy diagrams for various profiles and scenarios of enzyme catalysis; from Murphy, 1995. Biochemistry. 34(14):4507-4510: (a) Free energy diagrams for different concentrations of substrate S in catalyzed and in uncatalyzed reactions. Left panel: Profile I. S<Km such that enzyme is in a "loose" binding configuration with substrate. Right panel: Profile II. S>Km such that the enzyme is in a "tight" binding configuration with the substrate. Nomenclature below the figure indicates derivation of various free energy constants which are referred to in the text. […] In this scenario, the transition state is decreased from TSC1 to TSC2 resulting in a net increase of ΔGB from situation 1 to situation 2. […] Since ΔGES is unchanged in this plot, 100% of the additional binding energy is utilized for catalysis. This property and the increase in ΔAGb is the definition of a catalytic event driven by transition state stabilization, with the latter being the defining catalytic parameter; (c) free energy diagram for catalysis driven by ground state destabilization for a Profile II scenario where ES is decreased and TSC is not changed. From the left panel to the right panel, ES is decreased, whereas TS remains unchanged. Consequently, ΔΔGb remains constant although catalysis is noted (thus the free energy of enzyme/transition state binding is unchanged). […]

[5] = test system: normal BALB/c mouse splenocytes; experiment: Splenocyte proliferation (3H-thymidine incorporation) with or without Con-A; format: cell-based

Sequence of Cathepsin D (P07339 65-412): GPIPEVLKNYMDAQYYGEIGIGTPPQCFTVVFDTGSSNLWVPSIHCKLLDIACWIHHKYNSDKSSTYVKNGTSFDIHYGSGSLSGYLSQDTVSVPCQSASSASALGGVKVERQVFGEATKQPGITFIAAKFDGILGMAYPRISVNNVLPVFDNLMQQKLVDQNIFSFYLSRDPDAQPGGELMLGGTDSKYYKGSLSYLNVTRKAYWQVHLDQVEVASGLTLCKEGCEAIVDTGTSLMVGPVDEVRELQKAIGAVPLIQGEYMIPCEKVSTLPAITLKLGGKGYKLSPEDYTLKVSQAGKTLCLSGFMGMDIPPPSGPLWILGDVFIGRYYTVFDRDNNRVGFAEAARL

Compound	% inhibition [1]	% inhibition [2]	protection from cysticercosis infection, subsequent identical prophylactic experiment [3]	Immune cells observed by SEM on cyst surfaces [4]	proliferative response (3H-thymidine incorporation) ([5]; inhibitor alone)	toxicity to splenocytes in vitro ([5]; preliminary results)
Mu-Leu-Tyr-AFC [Mu-LY-AFC]	0%	0%				
CC(C)C[C@H](NC(=O)OCc1ccccc1)C(=O)N[C@@H](CC(C)C)C(=O)N[C@@H](Cc1ccc(O)cc1)C(=O)CF [Z-LLY-FMK, Z-Leu-Leu-Tyr-FMK] (Cbz-Leu-Leu-Tyr-CH2F)			75%-90%	presence of adherent immune cells	do not induce a proliferative response	nontoxic
